The target in test [1] is T1, recombinant human SOS1 polypeptide (amino acids 560-1049) (Homo sapiens, UniProt Q07889).
T1 construct: corresponding to amino acids 560-1049, expressed in E. Coli; made in house; host or cells: E. coli
T1 sequence (Q07889 560-1049): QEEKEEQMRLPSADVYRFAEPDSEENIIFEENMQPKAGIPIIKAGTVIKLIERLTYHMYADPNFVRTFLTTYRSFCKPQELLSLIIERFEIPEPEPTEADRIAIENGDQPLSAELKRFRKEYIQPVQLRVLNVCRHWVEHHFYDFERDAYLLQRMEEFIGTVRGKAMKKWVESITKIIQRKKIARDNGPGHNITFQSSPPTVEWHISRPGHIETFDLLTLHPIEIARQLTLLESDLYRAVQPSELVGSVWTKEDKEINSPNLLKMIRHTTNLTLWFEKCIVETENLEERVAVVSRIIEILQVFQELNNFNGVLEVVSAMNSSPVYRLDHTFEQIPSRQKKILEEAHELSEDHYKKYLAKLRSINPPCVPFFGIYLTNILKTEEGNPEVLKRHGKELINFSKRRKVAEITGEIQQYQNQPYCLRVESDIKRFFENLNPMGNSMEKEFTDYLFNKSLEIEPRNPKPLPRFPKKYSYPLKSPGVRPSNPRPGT
The test can be described thus: HTRF displacement assay: inhibition of labeled tracer binding to SOS1. The following applies: Table A, Morrison equation for competitive binding. Background: Time-resolved FRET reads energy transfer from a long-lived donor to a nearby acceptor.

In the next test the test system is pERK in MKN1 cells. The test can be described thus: pERK inhibition, In-Cell Western (LI-COR Odyssey), MKN1 cells. It counts as cell-based. The following applies: Homo sapiens, MKN-1, Table B; MKN1 or H358 cells (table does not say which); 0.5-1 hour incubation; read-out: IC50 (nM), pERK inhibition. A digest of the protocol:
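IC50 was fitted from % pERK inhibition, calculated as the GAPDH-normalised pERK signal of each well divided by the vehicle mean. Signal was imaged at 700 and 800 nm after fixation, methanol permeabilisation and dual antibody staining. Before fixation, MKN1 cells had received compound for about 0.5–1 h at 37 °C, top concentration 10 µM, nine 3-fold dilutions.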

Molecules are shown by their SMILES.

As a reminder, the Ki is a dissociation constant, usually derived from enzyme kinetics or from competition with a known ligand. Usually IC50 stands for the concentration that gives 50% inhibition. Regarding `Cc1nnc(N[C@H](C)c2cccc3c2OCC3(F)F)c2cc(N3CC4(CN(C)C4)C3)ncc12` [Example 1-99, (R)-N-(1-(3,3-difluoro-2,3-dihydrobenzofuran-7-yl)ethyl)-4-methyl-7-(6-methyl-2,6-diazaspiro[3.3]heptan-2-yl)pyrido[3,4-d]pyridazin-1-amine], the Ki in test [1] was 0.357 nM. Also, in the test on pERK in MKN1 cells, the IC50 was determined as 19.1 nM.
The like results for `Cc1nnc(N[C@H](C)c2cccc3c2OCC3(F)F)c2cc(N3CCN(C)CC3)ncc12` [Example 1-100, (R)-N-(1-(3,3-difluoro-2,3-dihydrobenzofuran-7-yl)ethyl)-4-methyl-7-(4-methylpiperazin-1-yl)pyrido[3,4-d]pyridazin-1-amine] were, in that order, 0.423 nM and 25.1 nM.
`CCN1CCN(c2cc3c(N[C@H](C)c4cccc5c4OCC5(F)F)nnc(C)c3cn2)CC1` [Example 1-101, (R)-N-(1-(3,3-difluoro-2,3-dihydrobenzofuran-7-yl)ethyl)-7-(4-ethylpiperazin-1-yl)-4-methylpyrido[3,4-d]pyridazin-1-amine]: the Ki in test [1] is 0.326 nM. Moreover, in the test on pERK in MKN1 cells, the IC50 was found to be 26.2 nM.
As to `Cc1c([C@@H](C)Nc2nnc(C)c3cnc(N4CCN(C)CC4)cc23)cc(N)nc1C(F)(F)F` [Example 1-102, (R)-N-(1-(6-amino-3-methyl-2-(trifluoromethyl)pyridin-4-yl)ethyl)-4-methyl-7-(4-methylpiperazin-1-yl)pyrido[3,4-d]pyridazin-1-amine], in test [1], the Ki was 2.18 nM. For the same compound, in the test on pERK in MKN1 cells, the IC50 was determined as 37 nM.
Turning to `CCN(c1cc2c(N[C@H](C)c3cccc(C#N)c3C)nnc(C)c2cn1)[C@@H]1CCN(C)C1` [Example 1-103, 3-((R)-1-((7-(ethyl((R)-1-methylpyrrolidin-3-yl)amino)-4-methylpyrido[3,4-d]pyridazin-1-yl)amino)ethyl)-2-methylbenzonitrile], the Ki in test [1] was found to be 1.1 nM. The IC50 in the test with pERK in MKN1 cells turned out to be 48.4 nM.
On the same counts, the results for `Cc1c([C@@H](C)Nc2nnc(C)c3cnc(N4CCOCC4)cc23)cc(N)nc1C(F)(F)F` [Example 1-105, (R)-N-(1-(6-amino-3-methyl-2-(trifluoromethyl)pyridin-4-yl)ethyl)-4-methyl-7-morpholinopyrido[3,4-d]pyridazin-1-amine] are 4.39 nM and 31.1 nM.
With `Cc1c([C@@H](C)Nc2nnc(C)c3cnc(N4C[C@H]5C[C@@H]4CO5)cc23)cc(N)nc1C(F)(F)F` [Example 1-106, N-((R)-1-(6-amino-3-methyl-2-(trifluoromethyl)pyridin-4-yl)ethyl)-7-((1R,4R)-2-oxa-5-azabicyclo[2.2.1]heptan-5-yl)-4-methylpyrido[3,4-d]pyridazin-1-amine], the Ki in test [1] is 7.3 nM. Also, the IC50 in the test on pERK in MKN1 cells was 128 nM.
On to `Cc1c([C@@H](C)Nc2nnc(C)c3cnc(N4CC5(COC5)C4)cc23)cc(N)nc1C(F)(F)F` [Example 1-107, (R)-N-(1-(6-amino-3-methyl-2-(trifluoromethyl)pyridin-4-yl)ethyl)-4-methyl-7-(2-oxa-6-azaspiro[3.3]heptan-6-yl)pyrido[3,4-d]pyridazin-1-amine], for which, in test [1], the Ki worked out at 22.5 nM. The IC50 in the test on pERK in MKN1 cells came to 239 nM.
The like results for `Cc1nnc(N[C@H](C)c2cccc3c2OCC3(F)F)c2cc(N3CCOCC3)ncc12` [Example 1-108, (R)-N-(1-(3,3-difluoro-2,3-dihydrobenzofuran-7-yl)ethyl)-4-methyl-7-morpholinopyrido[3,4-d]pyridazin-1-amine] were, in that order, 2.31 nM and 35.7 nM.
As to `Cc1nnc(N[C@H](C)c2cccc(C(C)(F)F)c2F)c2cc(N3CCN(C)CC3)ncc12` [Example 1-109, (R)-N-(1-(3-(1,1-difluoroethyl)-2-fluorophenyl)ethyl)-4-methyl-7-(4-methylpiperazin-1-yl)pyrido[3,4-d]pyridazin-1-amine], the Ki in test [1] amounted to 0.647 nM. Further, the IC50 in the test with pERK in MKN1 cells is 41.3 nM.
Take `Cc1c(C#N)cccc1[C@@H](C)Nc1nnc(C)c2cnc(N3CCS(=O)(=O)CC3)cc12` [Example 1-110, (R)-3-(1-((7-(1,1-dioxidothiomorpholino)-4-methylpyrido[3,4-d]pyridazin-1-yl)amino)ethyl)-2-methylbenzonitrile]: in test [1], the inhibition constant Ki is 3.36 nM. In addition, the IC50 with pERK in MKN1 cells was determined as 240 nM.
The like results for `Cc1c([C@@H](C)Nc2nnc(C)c3ccc(N4CCOCC4)cc23)cc(N)nc1C(F)(F)F` [Example 1-111, (R)-N-(1-(6-amino-3-methyl-2-(trifluoromethyl)pyridin-4-yl)ethyl)-4-methyl-7-morpholinophthalazin-1-amine] were, in that order, 2.91 nM and 57.9 nM.
Take `Cc1c(C#N)cccc1[C@@H](C)Nc1nnc(C)c2cnc(N3CCN(C(=O)[C@H]4CCCN4C)CC3)cc12` [Example 2-1, 2-methyl-3-((R)-1-((4-methyl-7-(4-(methyl-D-prolyl)piperazin-1-yl)pyrido[3,4-d]pyridazin-1-yl)amino)ethyl)benzonitrile]: in test [1], the Ki was 0.458 nM. In addition, in the test on pERK in MKN1 cells, the IC50 turned out to be 551 nM.
As for `Cc1c(C#N)cccc1[C@@H](C)Nc1nnc(C)c2cnc(N3CCN(C(=O)[C@@H]4CCCN4C)CC3)cc12` [Example 2-2, 2-methyl-3-((R)-1-((4-methyl-7-(4-(methyl-L-prolyl)piperazin-1-yl)pyrido[3,4-d]pyridazin-1-yl)amino)ethyl)benzonitrile], in test [1], the Ki is 0.845 nM. For the same compound, the 50% inhibitory concentration (IC50) with pERK in MKN1 cells stood at 456 nM.
Regarding `Cc1c(C#N)cccc1[C@@H](C)Nc1nnc(C)c2cnc(N3CCN(C(=O)[C@H]4CCCN4)CC3)cc12` [Example 2-3, 3-((R)-1-((7-(4-(D-prolyl)piperazin-1-yl)-4-methylpyrido[3,4-d]pyridazin-1-yl)amino)ethyl)-2-methylbenzonitrile], the Ki in test [1] was determined as 0.32 nM. The half-inhibitory concentration (IC50) in the test on pERK in MKN1 cells stood at 656 nM.
For `Cc1c(C#N)cccc1[C@@H](C)Nc1nnc(C)c2cnc(N3CCN(C(=O)[C@@H]4CCCN4)CC3)cc12` [Example 2-4, 3-((R)-1-((7-(4-(L-prolyl)piperazin-1-yl)-4-methylpyrido[3,4-d]pyridazin-1-yl)amino)ethyl)-2-methylbenzonitrile], the Ki in test [1] worked out at 0.816 nM. The concentration for half-maximal inhibition (IC50) in the test with pERK in MKN1 cells stood at 933 nM.
In the case of `Cc1c(C#N)cccc1[C@@H](C)Nc1nnc(C)c2cnc(N3CCN(C(=O)[C@@H]4CCN(C)C4)CC3)cc12` [Example 2-5, 2-methyl-3-((R)-1-((4-methyl-7-(4-((R)-1-methylpyrrolidine-3-carbonyl)piperazin-1-yl)pyrido[3,4-d]pyridazin-1-yl)amino)ethyl)benzonitrile], the Ki in test [1] turned out to be 0.743 nM. The concentration for half-maximal inhibition (IC50) with pERK in MKN1 cells amounted to 1050 nM.
The like results for `Cc1c(C#N)cccc1[C@@H](C)Nc1nnc(C)c2cnc(N3CCN(C(=O)[C@H]4CCN(C)C4)CC3)cc12` [Example 2-6, 2-methyl-3-((R)-1-((4-methyl-7-(4-((S)-1-methylpyrrolidine-3-carbonyl)piperazin-1-yl)pyrido[3,4-d]pyridazin-1-yl)amino)ethyl)benzonitrile] were, in that order, 0.481 nM and 869 nM.
For the compound `Cc1c(C#N)cccc1[C@@H](C)Nc1nnc(C)c2cnc(N3CCN(C(=O)[C@@H]4CCCCN4C)CC3)cc12` [Example 2-7, 2-methyl-3-((R)-1-((4-methyl-7-(4-((S)-1-methylpiperidine-2-carbonyl)piperazin-1-yl)pyrido[3,4-d]pyridazin-1-yl)amino)ethyl)benzonitrile], the inhibitory constant (Ki) in test [1] was 0.545 nM. In addition, the IC50 with pERK in MKN1 cells was 139 nM.
On to `Cc1c(C#N)cccc1[C@@H](C)Nc1nnc(C)c2cnc(N3CCN(C(=O)[C@H]4CCCCN4C)CC3)cc12` [Example 2-8, 2-methyl-3-((R)-1-((4-methyl-7-(4-((R)-1-methylpiperidine-2-carbonyl)piperazin-1-yl)pyrido[3,4-d]pyridazin-1-yl)amino)ethyl)benzonitrile], for which, in test [1], the Ki worked out at 0.67 nM. For the same compound, in the test on pERK in MKN1 cells, the half-maximal inhibitory concentration (IC50) stood at 211 nM.
In the case of `Cc1c(C#N)cccc1[C@@H](C)Nc1nnc(C)c2cnc(-c3ccc(CN(C)C)cc3)cc12` [Example 3-1, (R)-3-(1-((7-(4-((dimethylamino)methyl)phenyl)-4-methylpyrido[3,4-d]pyridazin-1-yl)amino)ethyl)-2-methylbenzonitrile], in test [1], the Ki is 6.11 nM. In addition, in the test on pERK in MKN1 cells, the IC50 was found to be 192 nM.
For `Cc1c(C#N)cccc1[C@@H](C)Nc1nnc(C)c2cnc(C3=CCN(C)CC3)cc12` [Example 3-2, (R)-2-methyl-3-(1-((4-methyl-7-(1-methyl-1,2,3,6-tetrahydropyridin-4-yl)pyrido[3,4-d]pyridazin-1-yl)amino)ethyl)benzonitrile], in test [1], the Ki was determined as 11.5 nM. The IC50 in the test with pERK in MKN1 cells turned out to be 124 nM.
As for `CCN1CCN(c2cc3c(N[C@H](C)c4cccc(C#N)c4C)nnc(C)c3cc2F)CC1` [Example 4-1, (R)-3-(1-((7-(4-ethylpiperazin-1-yl)-6-fluoro-4-methylphthalazin-1-yl)amino)ethyl)-2-methylbenzonitrile], the inhibitory constant (Ki) in test [1] was 1.73 nM. In addition, the IC50 with pERK in MKN1 cells was found to be 82.7 nM.
